# Data reported in paper PMC7910394, “Design of PSMA ligands with modifications at the inhibitor part: an approach to reduce the salivary gland uptake of radiolabeled PSMA inhibitors?” (EJNMMI Radiopharmacy and Chemistry, 2021).
# Where two headings read alike, the source gives them in different places.
# Experiments:
# [1] = molecular target: T1, PSMA (Homo sapiens, UniProt Q04609); assay: Competitive binding assay (IC50) on LNCaP cells with ([125I]I-BA)KuE as radioligand; conditions: ([125I]I-BA)KuE 0.2 nM, HBSS (1% BSA), 4 °C, 1 h
# T1 construct: host or cells: LNCaP human prostate cancer cells
# T1 sequence (Q04609 whole entry): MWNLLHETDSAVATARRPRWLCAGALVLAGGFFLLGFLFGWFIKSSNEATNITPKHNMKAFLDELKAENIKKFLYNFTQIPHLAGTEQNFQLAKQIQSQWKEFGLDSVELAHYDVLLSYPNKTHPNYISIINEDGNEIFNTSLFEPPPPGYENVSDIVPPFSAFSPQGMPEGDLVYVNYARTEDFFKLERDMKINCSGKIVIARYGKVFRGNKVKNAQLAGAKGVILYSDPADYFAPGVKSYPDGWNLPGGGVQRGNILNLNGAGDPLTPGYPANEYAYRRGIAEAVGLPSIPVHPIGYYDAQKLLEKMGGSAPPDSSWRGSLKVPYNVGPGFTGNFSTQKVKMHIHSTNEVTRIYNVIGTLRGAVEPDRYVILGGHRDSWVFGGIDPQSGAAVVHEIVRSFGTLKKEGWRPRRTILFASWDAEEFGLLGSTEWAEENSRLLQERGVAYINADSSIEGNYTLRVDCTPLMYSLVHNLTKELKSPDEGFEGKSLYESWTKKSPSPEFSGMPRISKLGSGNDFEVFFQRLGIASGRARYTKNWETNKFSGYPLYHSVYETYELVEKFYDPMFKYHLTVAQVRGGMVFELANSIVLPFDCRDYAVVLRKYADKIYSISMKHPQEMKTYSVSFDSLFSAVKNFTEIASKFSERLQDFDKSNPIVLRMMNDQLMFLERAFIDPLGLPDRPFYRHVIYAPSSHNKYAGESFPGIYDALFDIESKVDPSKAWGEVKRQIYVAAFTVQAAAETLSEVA
# Method: (§1) PSMA-positive LNCaP cells (300265; Cell Lines Service, Eppelheim, Germany) were cultivated in Dulbecco’s modified Eagle medium/Nutrition Mixture F-12 with GlutaMAX (1/1, DMEM-F12, Thermo Fisher Scientific, Darmstadt, Germany) supplemented with 10% fetal bovine serum (Merck KGaA, Darmstadt, Germany) and kept at 37 °C in a humidified 5% CO2 atmosphere. One day (24 ± 2 h) prior to all in vitro experiments, the cultivated LNCaP cells were harvested using a mixture of trypsin/ethylenediamine-tetraacetic acid (0.05%/0.02%) in PBS (Thermo Fisher Scientific, Darmstadt, Germany) and centrifuged at 1300 rpm (ca. 190×g) for 3 min at room temperature (Heraeus Megafuge 16, Thermo Fisher Scientific, Darmstadt, Germany). After centrifugation, the supernatant was disposed and the cell pellet was resuspended in culture medium. Cells were counted with a Neubauer hemocytometer (Paul Marienfeld GmbH & Co. KG, Lauda-Königshofen, Germany) and seeded in 24-well plates.
# (§2) Detailed information on affinity and internalization experiments is provided in the supporting information. […] IC50 values of (^natI-BA)KuE were determined on the same day for monitoring assay performance and to identify abnormal deviations in uptake and/or affinity. […] Data were corrected for non-specific binding and normalized to the specific internalization observed for the radioiodinated reference compound (n = 3).
# The culture medium was removed and the cells were washed with 500 µL of Hank’s balanced salt solution (HBSS) (Merck KGaA, Darmstadt, Germany), containing 1% bovine serum albumin (BSA) (Merck KGaA, Darmstadt, Germany). Afterwards, 200 µL of HBSS (1% BSA) were added to each well and equilibrated on ice (4 °C) for 15 min. […] Experiments were carried out in triplicates for each concentration. The final concentrations of unlabeled ligand ranged from 10^-11 - 10^-5 M and the final radioligand concentration was 0.2 nM in all binding assays. The cells were incubated for one hour at 4 °C. Incubation was terminated by removal of the incubation medium. The cells were washed with 250 µL of HBSS (1% BSA) and the wash medium was combined with the respective supernatant. This fraction represents the amount of free radioligand. The cells were lysed by addition of 250 µL of 1 M aqueous NaOH. The lysate of each well was transferred to the respective vial as well as 250 µL of 1 M NaOH used for rinsing the well. Quantification of the amount of free and bound activity was performed in a γ-counter. The corresponding IC50 values were calculated using the GraphPad PRISM7 software.
# [2] = test system: LNCaP tumor xenograft-bearing CB17-SCID mice; type: in vivo, mouse
# Method: All animal experiments were conducted in accordance with general animal welfare regulations in Germany (German animal protection act, as amended on 18.05.2018, Art. 141 G v. 29.3.2017 I 626, approval no. 55.2–1-54-2532-71-13) and the institutional guidelines for the care and use of animals. To establish tumor xenografts, LNCaP cells (approx. 10^7 cells) were suspended in 200 μL of a 1/1 mixture (v/v) of DMEM F-12 and Matrigel (BD Biosciences, Heidelberg, Germany) and inoculated subcutaneously onto the right shoulder of 6–8 weeks old CB17-SCID mice (Charles River Laboratories, Sulzfeld, Germany). Mice were used for experiments when tumor size reached 5–10 mm in diameter (3–6 weeks after inoculation).
# (§3) Approximately 2–10 MBq (0.20 nmol) of the ^177Lu-labeled PSMA inhibitors were injected into the tail vein of LNCaP tumor xenograft-bearing male CB17-SCID mice (n = 3 to 5). They were sacrificed by CO2 asphyxiation and cervical dislocation either 1 h or 24 h post injection (p.i.) (n = 3 for [^177Lu]Lu-5, -6 & -7 (proinhibitor compounds I-III), n = 4 for [^177Lu]Lu-10 (alkyne), n = 5 for [^177Lu]Lu-3 (carbamate I) and n = 5 for [^177Lu]Lu-11 (tetrazole)). Selected organs were removed, weighed and organ activities measured in a γ-counter.
# as §3, with “2 - 10” for “2–10”, “(alkyne) and” for “(alkyne),”
# [3] = test system: LNCaP cells; assay: Internalization study of 177Lu-labeled ligands in LNCaP cells, normalized to ([125I]I-BA)KuE; type: cell-based, human; conditions: 1 h, 37 °C, 1.0 nM 177Lu-compound, normalized to ([125I]I-BA)KuE
# Method: as §1, §2
# The culture medium was removed and the cells were washed with 500 µL of DMEM-F12 containing 5% BSA. Afterwards, 200 µL of DMEM-F12 (5% BSA) were added to each well and left to equilibrate at 37 °C for 15 min. 25 µL of DMEM-F12 (5% BSA) were added to each well, followed by the addition of 25 µL of the respective ^177Lu-labeled ligand (10.0 nM in DMEM-F12 (5% BSA)). For blocking PSMA-specific binding and uptake, 25 µL of 2-(phosphonomethyl)pentane-1,5-dioic acid (2-PMPA) (100 µM in DMEM (5% BSA)) instead of DMEM-F12 (5% BSA) were added prior to radiotracer addition. […] Each experiment (control and blockade) was performed in triplicate. […] Incubation was terminated by placing the plate on ice (4 °C, 1 min) and removal of the incubation medium. The cells were washed with 250 µL of ice-cold PBS and the wash medium was combined with the respective supernatant. This fraction represents the amount of free radioligand. 250 µL of ice-cold 2-PMPA (10 µM in PBS) were added and the cells were incubated for 10 min at 4 °C. Afterwards, the cells were rinsed again with 250 µL of ice-cold PBS and the wash medium was combined with the respective supernatant. This fraction represents the amount of cell surface-bound ligand. In the last step, the cells were lysed by addition of 250 µL of 1 M aqueous NaOH. After 20 min, the lysate of each well was transferred to the respective vial as well as 250 µL of 1 M NaOH used for rinsing the well. This fraction represents the amount of internalized radioligand. Quantification of the amount of free, cell surface-bound and internalized activity was performed in a γ-counter.
structure (smiles),measurement,setting,value
CC(C)(C)[Si](F)(c1ccc(C(=O)NC[C@@H](NC(=O)CN2CCN(CC(=O)[O-])CCN(CC(=O)[O-])CCN(CC(=O)[O-])CC2)C(=O)N[C@H](CCCCNC(=O)CCC(=O)NCCC[C@@H](NC(=O)CC[C@H](NC(=O)N[C@@H](Cc2ccco2)C(=O)O)C(=O)O)C(=O)O)C(=O)O)cc1)C(C)(C)C.[Lu+3] [^natLu-9],IC50,[1],> 440 nM
CC(C)(C)[Si](F)(c1ccc(C(=O)NC[C@@H](NC(=O)CN2CCN(CC(=O)[O-])CCN(CC(=O)[O-])CCN(CC(=O)[O-])CC2)C(=O)N[C@H](CCCCNC(=O)CCC(=O)NCCC[C@@H](NC(=O)CC[C@H](NC(=O)O[C@@H](CCC(=O)O)C(=O)O)C(=O)O)C(=O)O)C(=O)O)cc1)C(C)(C)C.[Lu+3] [^natLu/[^177Lu]Lu-3],IC50,[1],7.1 ± 0.7 nM
same,Biodistribution Adrenals,[2]; 1 h p.i.,1.46 ± 0.70 % ID/g
same,Biodistribution Blood,[2]; 1 h p.i.,0.97 ± 0.18 % ID/g
same,Biodistribution Bone,[2]; 1 h p.i.,0.18 ± 0.02 % ID/g
same,Biodistribution Heart,[2]; 1 h p.i.,0.36 ± 0.04 % ID/g
same,Biodistribution Intestine,[2]; 1 h p.i.,0.36 ± 0.17 % ID/g
same,Biodistribution Kidneys,[2]; 1 h p.i.,61.8 ± 25.9 % ID/g
same,Biodistribution Liver,[2]; 1 h p.i.,0.87 ± 0.28 % ID/g
same,Biodistribution Lung,[2]; 1 h p.i.,2.88 ± 2.96 % ID/g
same,Biodistribution Muscle,[2]; 1 h p.i.,0.13 ± 0.04 % ID/g
same,Biodistribution Pancreas,[2]; 1 h p.i.,0.25 ± 0.06 % ID/g
same,Biodistribution Parotid gland,[2]; 1 h p.i.,0.62 ± 0.20 % ID/g
same,Biodistribution Spleen,[2]; 1 h p.i.,2.51 ± 0.95 % ID/g
same,Biodistribution Stomach,[2]; 1 h p.i.,0.30 ± 0.09 % ID/g
same,Biodistribution Submandibular gland,[2]; 1 h p.i.,0.37 ± 0.08 % ID/g
same,Biodistribution Tumor,[2]; 1 h p.i.,5.31 ± 0.94 % ID/g
same,Ratio Tumor-to-blood,[2]; 1 h p.i.,5.57 ± 1.18
same,Ratio Tumor-to-kidney,[2]; 1 h p.i.,0.09 ± 0.03
same,Ratio Tumor-to-liver,[2]; 1 h p.i.,6.61 ± 2.19
same,Ratio Tumor-to-muscle,[2]; 1 h p.i.,44.1 ± 9.0
same,Ratio Tumor-to-parotid gland,[2]; 1 h p.i.,9.09 ± 3.13
same,Ratio Tumor-to-submandibular gland,[2]; 1 h p.i.,14.7 ± 3.5
same,Biodistribution Adrenals,[2]; 24 h p.i.,0.04 ± 0.01 % ID/g
same,Biodistribution Bone,[2]; 24 h p.i.,0.02 ± 0.01 % ID/g
same,Biodistribution Heart,[2]; 24 h p.i.,0.02 ± 0.01 % ID/g
same,Biodistribution Intestine,[2]; 24 h p.i.,0.12 ± 0.06 % ID/g
same,Biodistribution Kidneys,[2]; 24 h p.i.,0.31 ± 0.05 % ID/g
same,Biodistribution Liver,[2]; 24 h p.i.,0.13 ± 0.05 % ID/g
same,Biodistribution Lung,[2]; 24 h p.i.,0.03 ± 0.01 % ID/g
same,Biodistribution Muscle,[2]; 24 h p.i.,0.01 ± 0.01 % ID/g
same,Biodistribution Pancreas,[2]; 24 h p.i.,0.02 ± 0.01 % ID/g
same,Biodistribution Parotid gland,[2]; 24 h p.i.,0.04 ± 0.02 % ID/g
same,Biodistribution Spleen,[2]; 24 h p.i.,0.09 ± 0.01 % ID/g
same,Biodistribution Stomach,[2]; 24 h p.i.,0.06 ± 0.04 % ID/g
same,Biodistribution Submandibular gland,[2]; 24 h p.i.,0.03 ± 0.01 % ID/g
same,Biodistribution Tumor,[2]; 24 h p.i.,1.20 ± 0.55 % ID/g
same,Ratio Tumor-to-blood,[2]; 24 h p.i.,947 ± 652
same,Ratio Tumor-to-kidney,[2]; 24 h p.i.,3.80 ± 1.36
same,Ratio Tumor-to-liver,[2]; 24 h p.i.,8.94 ± 2.94
same,Ratio Tumor-to-muscle,[2]; 24 h p.i.,127 ± 92
same,Ratio Tumor-to-parotid gland,[2]; 24 h p.i.,31.8 ± 9.3
same,Ratio Tumor-to-submandibular gland,[2]; 24 h p.i.,34.5 ± 9.2
same,factor by which tumor-to-submandibular gland and tumor-to-parotid gland ratios are lower than for [177Lu]Lu-1,[2]; 24 h p.i.,8
same,%Internalization compared to the reference,[3],1 h: 67.8 ± 0.5%
